Experimental data: patent publication US11066379B2 (THE TEXAS A&M UNIVERSITY SYSTEM, priority 2018, dated 2021)
Values joined by “and” are separate entries in the source; they are usually repeats but may differ in a detail not shown here. Identical values can stand only once. Like-named read-outs stand apart in the source and are kept apart here.

Key:
[1] = target: T1, active human CypA protein (Homo sapiens, UniProt P62937); assay: Binding to immobilized CypA by surface plasmon resonance (SPR); settings: for immunosuppressive activity (SAR profile, FIG. 2): in words, CypA binding / IL-2 inhibition
T1 construct: Active human CypA full-length protein was from Abcam; purchased Abcam
Experimental: Sensor surface activation and ligand immobilization were performed by using HBS-EP as running buffer at a flow rate of 5 μL/min and 25° C. CM5 sensor chips were used as surface where Cyp A or D was immobilized as ligand. The CM5 chip is a glass slide coated with a thin layer of gold with a matrix of carboxymethylated dextran covalently attached. The CM5 chip was activated using an amine coupling kit. […] After activation, the ligand, 100 μg/mL of active human CypA protein dissolved in sodium acetate 10 mM at pH 4.5 was added to be immobilized over a CM5 sensor chip. Finally ethanolamine-HCl was injected to deactivate the remaining active esters and to avoid non-specific binding. […] Once analytes were tested and interaction was observed, individual binding curves were analyzed by determining the kinetic constants of analytes-CypA binding, namely, the observed rate constant (Kobs), the association rate constant (Kass), the dissociation rate constant (Kdiss), and the kinetic equilibrium dissociation constant (KD). At equilibrium, by definition, […]. The pseudo-first order association rate constants Kobs (s^-1) were determined for each compound concentration by using the 1:1 Langmuir association model of BiaEvaluation software (BiaCore, Uppsala, Sweden). Then a representation of Kobs against the corresponding concentration of each compound was done. […] From the equation of these representations, Kass, M^-1 s^-1, gradient of the plot, and […]^-1, intercept of the plot was obtained. Within these two values, the kinetic equilibrium dissociation constant KD for each analyte-CypA binding was obtained. The duration of the sample injection was 2 min at 10 μL/min flow rate. Next, dissociation of bound molecules in HBS-EP buffer flow was studied. The bound drugs were removed from the chip surface before the next injection by adding 1 M Glycine-HCl at pH 2.5 for 1 min. The association phase was used to quantify the compound-CypA or D interactions. All experiments were performed four times.

SH-SY5Y cells [2] = assay: Neuroprotection against H2O2 toxicity, cell viability by MTT; format: cell-based, human; settings: 150 μM H2O2 co-treatment 6 h; 0.01, 0.1 and 1 μM
Experimental: (§1) SH-SY5Y cells were seeded in 96-well plates at a density of 2.5×10^5 cells/mL and allowed to adhere for 24 h. At first, cells were treated only with compounds at concentrations ranging from 10-0.01 μM for 24 h to determine their possible cytotoxic effects. Experiments were carried out three times. For neuroprotective experiments, cells were treated with compounds at non-toxic concentrations (1 μM→1 nM) and 150 μM H2O2 for 6 h. Briefly, cells were washed three times with saline solution and 200 μL of MTT (500 μg/mL) dissolved in saline buffer were added to each well. Following 1 h of incubation at 37° C., the cells were disaggregated with sodium dodecyl sulphate at 5%. Absorbance of formazan crystals was measured at 595 nm with a spectrophotometer plate reader. Saponin was used as death control and its absorbance was subtracted from the other data. All experiments were performed four times.

SH-SY5Y cells [3] = assay: Cellular toxicity in SH-SY5Y cells (MTT, 24 h); format: cell-based; settings: for cytotoxicity toward SH-SY5Y cells: 10-0.01 μM, in words; for IC50: Homo sapiens, SH-SY5Y, read-out: IC50 (cellular toxicity)
Description: The MTT (3-[4,5-dimethylthiazol-2-yl]-2,5-diphenyltetrazoliumbromide) assay was used to determine the cytotoxicity of gracilin derivatives in T lymphocytes (Burton, J. D. Methods Mol. Med., 2005, 110, 69-78) and SH-SY5Y cells and the protective effect of these compounds against H2O2 insult in neuroblastoma cells as previously described (Leiros, M., Alonso, E., Sanchez, J. A., Rateb, M. E., Ebel, R., Houssen, W. E., Jaspars, M., Alfonso, A. and Botana, L. M. ACS Chem. Neurosci., 2014, S, 71-80). Human T lymphocytes were cultured in 24 well plates at the concentration of 2.5×10^6 cells/mL and exposed to different compound concentrations (0.01, 0.1, 1 and 10 μM) added to the culture medium. Human T cells were maintained in the presence of the pure compound at 37° C. in humidified 5% CO2/95% air atmosphere for 48 h.
as §1, with “5%.” for “5%. Absorbance of formazan crystals was measured at 595 nm with a spectrophotometer plate reader. Saponin was used as death control and its absorbance was subtracted from the other data. All experiments were performed four times.”
Absorbance of formazan crystals was measured at 595 nm with a spectrophotometer plate reader. Saponin was used as death control and its absorbance was subtracted from the other data. All experiments were performed four times.

SH-SY5Y cells [4] = assay: Glutathione assay (Thiol Tracker Violet) after H2O2; format: cell-based, human; settings: 150 μM H2O2 co-treatment 6 h, two or more concentrations
Experimental: Glutathione (GSH) levels were determined using Thiol Tracker Violet dye, which reacts with reduced thiols in cells. Reduced glutathione represents the majority of intracellular free thiols, so this probe can be used to estimate its levels in cells. Measurements were performed following manufacturer's protocol. Cells were seeded in 96-well plates at 2.5×10^5 cells/mL for 24 h and treated with compounds at various concentrations (1 μM→1 nM) and 150 μM H2O2. After 6 h, SH-SY5Y cells were washed twice with PBS and loaded with 100 μL of prewarmed Thiol Tracker Violet dye (10 μM) for 30 min at 37° C. The fluorescence was measured at 404 nm excitation and emission at 526 nm. All experiments were performed four times.

T1 sequence (P62937 whole entry): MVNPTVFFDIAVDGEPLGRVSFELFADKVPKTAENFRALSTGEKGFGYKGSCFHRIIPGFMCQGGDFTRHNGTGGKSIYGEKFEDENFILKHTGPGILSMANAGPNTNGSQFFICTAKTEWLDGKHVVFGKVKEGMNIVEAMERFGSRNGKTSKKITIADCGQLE

Structure (SMILES) | immunosuppressive activity (SAR profile, FIG. 2) [1] | protection of cell viability against H2O2 insult (SH-SY5Y cells [2]) | cytotoxicity toward SH-SY5Y cells (SH-SY5Y cells [3]; 24 h) | IC50 (SH-SY5Y cells [3]; 24 h incubation) [µM] | GSH levels (SH-SY5Y cells [4]) | Kd ([1]; SPR, immobilized CypA) | IC50 (SH-SY5Y cells [3]; 24 h) [µM]
CC(=O)O[C@H]1O[C@@H](OC(C)=O)[C@@H]2CC[C@](O)(C3(C)CCCC(C)(C)C3)C[C@H]12 (stereo partly drawn) [Compound 22, (1S,3R,3aS,5R,7aR)-5-hydroxy-5-(1,3,3-trimethylcyclohexyl)octahydroisobenzo-furan-1,3-diyl diacetate] | inactive | protected cells against H2O2 insult at almost all concentrations | led to cell death at the higher concentrations tested | 6.5 | recovered GSH levels |  | 
CC(=O)O[C@@H]1OC[C@H]2C=C(C3(C)CCCCC3)CC[C@@H]12 [Compound 27a, (1S,3aS,7aR)-5-(1-methylcyclohexyl)-1,3,3a,6,7,7a-hexahydroisobenzofuran-1-yl acetate] | inactive | protected cells against H2O2 insult at almost all concentrations | led to cell death at the higher concentrations tested |  | recovered GSH levels |  | 
CC(=O)O[C@H]1OC[C@@H]2C=C([C@@]3(C)CCCC(C)(C)C3)CC[C@H]12 [Compound 29a, (1R,3aR,7aS)-5-(1,3,3-trimethylcyclohexyl)-1,3,3a,6,7,7a-hexahydroisobenzofuran-1-yl acetate] |  | protected cells against H2O2 insult at almost all concentrations | led to cell death at the higher concentrations tested |  | recovered GSH levels | ~3 µM and 2.8 to 6.8 µM | 16.5
